Measured values as given in patent US8426408B2, “Pyrimidine inhibitors of kinases” (AbbVie Inc., priority 2009, dated 2013).

How the values were obtained:
KDR [1] = target: T1, KDR (Homo sapiens, UniProt P35968); test: KDR HTRF in vitro kinase assay; assay type: biochemical; parameters: purified enzyme (His6-KDR 789-1354, MW 63 kD); His6 (N); conditions: 1 mM ATP; read-out: KDR enzyme inhibition data (Ki)
Procedure, shortened: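 His6-KDR 789-1354 (7 ng/well) with 0.5 μM biotinylated peptide substrate and 1 mM ATP in HEPES pH 7.1, MgCl2/MnCl2, 60 min at room temperature. EDTA-quenched, detected by streptavidin-XL-665 plus Eu-kryptate anti-phosphotyrosine HTRF after 3 h; IC50 from 620/665 nm ratio.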
Target sequence in this assay (P35968 789-1354): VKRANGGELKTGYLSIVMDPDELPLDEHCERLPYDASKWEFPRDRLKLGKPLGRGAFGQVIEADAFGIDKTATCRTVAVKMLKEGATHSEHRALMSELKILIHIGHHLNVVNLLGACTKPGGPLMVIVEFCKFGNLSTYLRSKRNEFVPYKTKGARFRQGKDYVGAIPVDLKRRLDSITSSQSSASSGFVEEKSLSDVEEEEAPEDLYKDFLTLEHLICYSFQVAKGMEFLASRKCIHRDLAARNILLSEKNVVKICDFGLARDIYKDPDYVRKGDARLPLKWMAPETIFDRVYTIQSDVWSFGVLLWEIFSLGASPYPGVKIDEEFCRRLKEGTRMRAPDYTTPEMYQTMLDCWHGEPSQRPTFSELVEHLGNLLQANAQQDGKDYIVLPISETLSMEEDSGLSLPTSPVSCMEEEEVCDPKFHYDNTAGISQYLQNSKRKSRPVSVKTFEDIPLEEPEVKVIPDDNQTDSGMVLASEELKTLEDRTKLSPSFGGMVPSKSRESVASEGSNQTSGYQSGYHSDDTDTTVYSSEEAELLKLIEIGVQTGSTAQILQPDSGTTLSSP

KDR [2] = target: T1, KDR; test: KDR cellular assay (KDR receptor phosphorylation ELISA); assay type: cell-based; parameters: expressed in transfected cells; host or cells: 3T3 (embryonic mouse) cells; conditions: KDR transfected 3T3 (embryonic mouse) cells, VEGF stimulated; read-out: IC50 inhibition of KDR phosphorylation
Experimental: The ability of compounds to inhibit KDR receptor phosphorylation in cells was measured by ELISA following the protocol outlined below.
KDR transfected 3T3 (embryonic mouse) cells added to 96-well tissue culture plates at 20,000 cells/well.
Plates were covered and placed in a 37° C. humidified incubator with 5% CO2 overnight, to allow cells to adhere.
Coating solution was prepared: 500 l/vial PBS was added to 2 vials of anti-KDR antibody, then 1 ml solubilized anti-KDR antibody into 29.0 ml bicarbonate buffer. Coating solution was added to all wells at 150 µl/well (final amount anti-KDR=1 µg/well) and placed at 4° C. overnight.
Blocking solution (2.1 g dry milk+42 ml PBS=5% milk in PBS) was placed on a stir plate for 30 min.
Assay plates were washed twice with PBST, and 200 µl/well blocking solution was added to all wells. Assay plates were covered with plate sealers and placed in a 37° C. microplate chamber until just before cell lysate transfer.
Compound stocks were thawed or prepared in DMSO as 5 mM stocks.
Dilution medium (DM, 1% DMSO in DMEM) and compounds were diluted by half-log increments for concentration response analysis.
Conditioned media was dumped from the tissue culture plates, and plates were blotted dry.
Standard solution in DM, compound dilutions in DM, or DM (for high control, negative control, and reference wells) were added to the tissue culture plates, 25 µl/well. Each pair of tissue culture plates was prepared with the same compounds, solutions, and layout; and will be combined later; Tissue culture plates were covered and placed in the 37° C. microplate chamber for 20 min.
VEGF solution was prepared: 110 l VEGF stock+10.89 ml DM=100 ng/ml VEGF
VEGF solution or DM (for reference wells) was added to the tissue culture plates, 25 μl/well.
Tissue culture plates were covered and placed in the 37° C. microplate chamber for 10 min.
RIPA buffer was prepared (240 l NaVO3 stock+240 l PIC stock+24 l NaF stock+23.496 ml RIPA base) and added to the tissue culture plates, 50 µl/well.
Tissue culture plates were covered and placed on a Labline plate shaker for 10 min (speed about 5).
Assay plates were washed twice with PBST.
Cell lysates from matching wells of each pair of tissue culture plates were combined to =200 µl/well, and were pipetted up and down to mix. Cell lysates were transferred to the assay plates using the same layouts, 170 µl/well.
Assay plates were covered with plate sealers and placed on a Labline plate shaker for 2 hr (speed about 5).
Assay plates were washed 5 times with PBST.
Biotin antibody solution was prepared (16 l biotin antibody stock+32 ml PBST=2000× dilution) and added to the assay plates, 150 µl/well.
Assay plates were covered with plate sealers and placed on a Labline plate shaker for 90 min
Streptavidin-HRP solution was prepared (16 l streptavidin-HRP stock+32 ml PBST=2000× dilution) and added to the assay plates, 150 µl/well.
Assay plates were covered with plate sealers and placed on a Labline plate shaker for 60 min
Substrate was added to the assay plates, 100 µl/well.
As assay plates developed, the plates were each monitored on a Molecular Devices Spectramax set to 650 nm, until the signal in the high control wells was around 0.6 OD and the signal in the negative control wells was around 0.1-0.15 OD.
Stop solution was added to the assay plates, 100 µl/well.
The plates were read on a Molecular Devices Spectramax set to 450 nm.
Data was calculated by Assay Explorer, using same-plate high control wells as 0% and reference standard wells as 100% inhibition of KDR phosphorylation. IC50 values were calculated by non-linear regression analysis of the concentration response data.
Target sequence in this assay (P35968 20-1356): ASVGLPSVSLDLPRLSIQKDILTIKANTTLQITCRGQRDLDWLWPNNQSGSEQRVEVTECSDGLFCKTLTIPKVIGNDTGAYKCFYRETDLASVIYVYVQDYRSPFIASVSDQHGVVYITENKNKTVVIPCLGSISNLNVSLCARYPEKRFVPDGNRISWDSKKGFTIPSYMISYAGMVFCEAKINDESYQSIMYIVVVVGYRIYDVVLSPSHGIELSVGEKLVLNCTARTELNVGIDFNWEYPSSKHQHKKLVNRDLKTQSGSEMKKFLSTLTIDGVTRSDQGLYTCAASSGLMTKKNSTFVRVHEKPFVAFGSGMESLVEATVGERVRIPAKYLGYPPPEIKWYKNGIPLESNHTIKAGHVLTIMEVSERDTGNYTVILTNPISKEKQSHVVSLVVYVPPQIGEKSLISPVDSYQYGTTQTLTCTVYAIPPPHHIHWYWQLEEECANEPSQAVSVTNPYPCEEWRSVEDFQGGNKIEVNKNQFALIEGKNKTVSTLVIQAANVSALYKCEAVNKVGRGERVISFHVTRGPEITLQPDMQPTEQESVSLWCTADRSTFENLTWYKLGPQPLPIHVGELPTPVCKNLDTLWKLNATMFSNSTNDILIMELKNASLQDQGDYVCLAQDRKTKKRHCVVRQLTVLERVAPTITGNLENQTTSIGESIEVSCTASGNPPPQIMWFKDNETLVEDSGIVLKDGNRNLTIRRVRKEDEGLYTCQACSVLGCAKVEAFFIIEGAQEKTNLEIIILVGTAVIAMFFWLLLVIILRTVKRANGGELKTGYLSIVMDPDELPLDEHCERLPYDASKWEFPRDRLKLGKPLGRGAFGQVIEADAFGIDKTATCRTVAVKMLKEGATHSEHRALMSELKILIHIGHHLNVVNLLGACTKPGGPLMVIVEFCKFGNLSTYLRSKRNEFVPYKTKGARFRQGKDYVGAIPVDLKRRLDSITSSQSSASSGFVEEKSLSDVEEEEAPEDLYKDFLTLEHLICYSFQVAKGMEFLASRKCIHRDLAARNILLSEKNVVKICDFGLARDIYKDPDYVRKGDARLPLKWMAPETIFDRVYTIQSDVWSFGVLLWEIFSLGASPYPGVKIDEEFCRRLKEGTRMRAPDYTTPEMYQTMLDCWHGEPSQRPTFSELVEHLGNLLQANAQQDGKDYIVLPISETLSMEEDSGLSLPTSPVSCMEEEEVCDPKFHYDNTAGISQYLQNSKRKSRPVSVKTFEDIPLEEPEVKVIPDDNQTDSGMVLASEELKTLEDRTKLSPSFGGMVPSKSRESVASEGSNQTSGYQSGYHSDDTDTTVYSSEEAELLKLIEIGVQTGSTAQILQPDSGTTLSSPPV

Aurora A = target: T2, Aurora A (Homo sapiens, UniProt O14965); test: Aurora A enzyme inhibition (time-resolved fluorescence, STK substrate-2); assay type: biochemical; conditions: 1 mM ATP
T2 sequence (O14965 1-403): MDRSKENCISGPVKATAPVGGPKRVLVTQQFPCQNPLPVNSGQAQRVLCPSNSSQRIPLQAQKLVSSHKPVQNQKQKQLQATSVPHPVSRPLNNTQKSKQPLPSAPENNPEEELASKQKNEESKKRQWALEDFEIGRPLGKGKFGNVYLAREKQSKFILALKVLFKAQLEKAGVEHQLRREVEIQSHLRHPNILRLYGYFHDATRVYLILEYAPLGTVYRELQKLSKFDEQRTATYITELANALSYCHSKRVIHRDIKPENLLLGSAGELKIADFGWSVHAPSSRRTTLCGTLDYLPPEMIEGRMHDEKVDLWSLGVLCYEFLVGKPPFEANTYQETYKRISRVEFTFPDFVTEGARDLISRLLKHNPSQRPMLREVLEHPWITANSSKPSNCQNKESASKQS
Procedure, shortened: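 Active enzyme incubated 1 h with biotinylated STK substrate-2, 1 mM ATP and inhibitor in Hepes pH 7.4 with MgCl2, orthovanadate and Triton X-100. EDTA stop; phosphopeptide detected by Eu-cryptate anti-phospho-STK/SA-XL665 TR-FRET (665/615 nm ratio); IC50 by exponential fit.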

Aurora B = target: T3, Aurora B (Homo sapiens, UniProt Q96GD4); test: Aurora B enzyme inhibition (time-resolved fluorescence, histone H3 peptide); assay type: biochemical; conditions: 1 mM ATP
T3 construct: Active Aurora B enzyme (recombinant residues 1-344)
T3 sequence (Q96GD4 whole entry, the tested form may be a part): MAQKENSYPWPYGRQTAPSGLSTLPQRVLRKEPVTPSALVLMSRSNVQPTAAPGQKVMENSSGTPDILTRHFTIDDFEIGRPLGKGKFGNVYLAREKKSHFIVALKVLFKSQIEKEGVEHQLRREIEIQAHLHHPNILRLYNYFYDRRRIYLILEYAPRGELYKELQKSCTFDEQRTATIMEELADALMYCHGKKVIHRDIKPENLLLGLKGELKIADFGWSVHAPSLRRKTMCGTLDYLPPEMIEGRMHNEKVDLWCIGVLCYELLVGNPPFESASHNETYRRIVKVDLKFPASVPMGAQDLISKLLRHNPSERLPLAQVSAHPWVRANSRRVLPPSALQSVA
T3 sequence (Q9NQS7 826-918 partner limits assumed): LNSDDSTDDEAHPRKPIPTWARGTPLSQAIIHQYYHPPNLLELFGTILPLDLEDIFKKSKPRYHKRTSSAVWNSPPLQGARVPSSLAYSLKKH
Procedure, shortened: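 Recombinant Aurora B (residues 1-344) with GST-INCENP phosphorylated biotinylated histone H3 (1-21) peptide at 1 mM ATP in HEPES pH 7.4 with MgCl2, orthovanadate and Triton X-100 for 1 h. After EDTA stop, the phosphopeptide was detected by TR-FRET (Eu-cryptate anti-phospho-H3 / SA-APC, 665/615 nm ratio). IC50 from an exponential fit.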

Row | Compound | Ki (KDR [1]) | IC50 (KDR [2]) | Ki (Aurora A) | Ki (Aurora B)
1 | Cn1cc(Nc2ncc(Cl)c(N[C@@H]3CC=CC[C@@H]3C(N)=O)n2)cn1.Cn1cc(Nc2ncc(Cl)c(N[C@H]3CC=CC[C@H]3C(N)=O)n2)cn1 (mixture of isomers) [Example 146, (1S,6R)-6-({5-chloro-2-[(1-methyl-1H-pyrazol-4-yl)amino]pyrimidin-4-yl}amino)cyclohex-3-ene-1-carboxamide and (1R,6S)-6-({5-chloro-2-[(1-methyl-1H-pyrazol-4-yl)amino]pyrimidin-4-yl}amino)cyclohex-3-ene-1-carboxamide] | 100 to 1000 nM | 100 to 1000 nM | < 100 nM | < 100 nM
2 | Cn1cc(Nc2ncc(Cl)c(N[C@@H]3CCCC[C@@H]3C(N)=O)n2)cn1.Cn1cc(Nc2ncc(Cl)c(N[C@H]3CCCC[C@H]3C(N)=O)n2)cn1 (mixture of isomers) [Example 147, (1S,2R)-2-({5-chloro-2-[(1-methyl-1H-pyrazol-4-yl)amino]pyrimidin-4-yl}amino)cyclohexanecarboxamide and (1R,2S)-2-({5-chloro-2-[(1-methyl-1H-pyrazol-4-yl)amino]pyrimidin-4-yl}amino)cyclohexanecarboxamide] | < 100 nM | 100 to 1000 nM | < 100 nM | < 100 nM
3 | CC(C)NC(=O)[C@@H]1CCC[C@@H]1Nc1nc(Nc2cnn(C)c2)ncc1Cl.CC(C)NC(=O)[C@H]1CCC[C@H]1Nc1nc(Nc2cnn(C)c2)ncc1Cl (mixture of isomers) [Example 156, (1S,2R)-2-({5-chloro-2-[(1-methyl-1H-pyrazol-4-yl)amino]pyrimidin-4-yl}amino)-N-isopropylcyclopentanecarboxamide and (1R,2S)-2-({5-chloro-2-[(1-methyl-1H-pyrazol-4-yl)amino]pyrimidin-4-yl}amino)-N-isopropylcyclopentanecarboxamide] | 100 to 1000 nM | 100 to 1000 nM | < 100 nM | < 100 nM
4 | Cc1nn(C)c(C)c1Nc1ncc(Br)c(N[C@H]2[C@@H](C(N)=O)[C@@H]3C=C[C@H]2C3)n1 [Example 128, (1S,2S,3R,4R)-3-({5-bromo-2-[(1,3,5-trimethyl-1H-pyrazol-4-yl)amino]pyrimidin-4-yl}amino)bicyclo[2.2.1]hept-5-ene-2-carboxamide] | 100 to 1000 nM | 100 to 1000 nM | 100 to 1000 nM | 100 to 1000 nM
5 | Cn1cc(Nc2ncc(Cl)c(Nc3ccccc3CO)n2)cn1 [Example 145, [2-({5-chloro-2-[(1-methyl-1H-pyrazol-4-yl)amino]pyrimidin-4-yl}amino)phenyl]methanol] | < 100 nM | 100 to 1000 nM | < 100 nM | < 100 nM
6 | CCn1cc(Nc2ncc(Cl)c(N[C@H]3[C@@H](C(N)=O)C[C@H]4C[C@@H]3C4(C)C)n2)cn1 [Example 166, (1R,2R,3S,5R)-2-({5-chloro-2-[(1-ethyl-1H-pyrazol-4-yl)amino]pyrimidin-4-yl}amino)-6,6-dimethylbicyclo[3.1.1]heptane-3-carboxamide] | < 100 nM | 100 to 1000 nM | < 100 nM | < 100 nM

Results, then the compound that gave them:

Row | Ki (KDR [1]) | IC50 (KDR [2]) | Ki (Aurora A) | Ki (Aurora B) | Compound
7 | < 100 nM | < 100 nM | < 100 nM | < 100 nM | NC(=O)[C@@H]1[C@H](Nc2nc(Nc3cnn(CC(F)(F)F)c3)ncc2C(F)(F)F)[C@H]2C=C[C@@H]1C2 (racemic) [Example 32, (1S,2S,3R,4R)-3-{[2-{[1-(2,2,2-trifluoroethyl)-1H-pyrazol-4-yl]amino}-5-(trifluoromethyl)pyrimidin-4-yl]amino}bicyclo[2.2.1]hept-5-ene-2-carboxamide and (1R,2R,3S,4S)-3-{[2-{[1-(2,2,2-trifluoroethyl)-1H-pyrazol-4-yl]amino}-5-(trifluoromethyl)pyrimidin-4-yl]amino}bicyclo[2.2.1]hept-5-ene-2-carboxamide]
8 | 100 to 1000 nM | 100 to 1000 nM | 100 to 1000 nM | 100 to 1000 nM | Cc1nn(C)c(C)c1Nc1ncc(Cl)c(N[C@H]2[C@@H](C(N)=O)[C@@H]3C=C[C@H]2C3)n1 [Example 127, (1S,2S,3R,4R)-3-({5-chloro-2-[(1,3,5-trimethyl-1H-pyrazol-4-yl)amino]pyrimidin-4-yl}amino)bicyclo[2.2.1]hept-5-ene-2-carboxamide]
9 | 100 to 1000 nM | 100 to 1000 nM | < 100 nM | < 100 nM | Cn1cc(Nc2ncc(Cl)c(Nc3ccccc3C3(O)CCOCC3)n2)cn1 [Example 133, 4-[2-({5-chloro-2-[(1-methyl-1H-pyrazol-4-yl)amino]pyrimidin-4-yl}amino)phenyl]tetrahydro-2H-pyran-4-ol]
10 | < 100 nM | 100 to 1000 nM | < 100 nM | < 100 nM | Cn1cc(Nc2ncc(Cl)c(Nc3ccccc3C(C)(C)O)n2)cn1 [Example 138, 2-[2-({5-chloro-2-[(1-methyl-1H-pyrazol-4-yl)amino]pyrimidin-4-yl}amino)phenyl]propan-2-ol]
11 | 100 to 1000 nM | 100 to 1000 nM | < 100 nM | < 100 nM | Cn1cc(Nc2ncc(C(F)(F)F)c(Nc3sccc3C(N)=O)n2)cn1 [Example 152, 2-({2-[(1-methyl-1H-pyrazol-4-yl)amino]-5-(trifluoromethyl)pyrimidin-4-yl}amino)thiophene-3-carboxamide]
12 | 100 to 1000 nM | 100 to 1000 nM | < 100 nM | < 100 nM | Cn1cc(Nc2ncc(C(F)(F)F)c(Nc3cn(C)nc3C(N)=O)n2)cn1 [Example 153, 1-methyl-4-({2-[(1-methyl-1H-pyrazol-4-yl)amino]-5-(trifluoromethyl)pyrimidin-4-yl}amino)-1H-pyrazole-3-carboxamide]
13 | 100 to 1000 nM | 100 to 1000 nM | < 100 nM | < 100 nM | CC(C)NC(=O)[C@H]1CCC[C@H]1Nc1nc(Nc2cnn(CCN3CCOCC3)c2)ncc1Cl [Example 164, (1S,2R)-2-{[5-chloro-2-({1-[2-(morpholin-4-yl)ethyl]-1H-pyrazol-4-yl}amino)pyrimidin-4-yl]amino}-N-isopropylcyclopentanecarboxamide]
